{
  "source": "patent US8802597B2",
  "about": "“Herbicidal pyrimidines” (E I du Pont de Nemours and Company, priority 2003, dated 2014)",
  "experiment_in_all_cases": "Test C pre/postemergence",
  "format_in_all_cases": "in vivo",
  "key": {"[1]": {"test_system": "pigweed (Amaranthus retroflexus)", "details": "Amaranthus retroflexus; for pest or weed control at 62 g/ha: 62 g ai/ha; for pest or weed control at 125 g/ha: 125 g ai/ha; for pest or weed control at 250 g/ha: 250 g ai/ha; for pest or weed control at 500 g/ha: 500 g ai/ha", "in_short": "(§1)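 We sprayed seeded pots preemergence and 2–18 cm seedlings postemergence with test chemicals in a non-phytotoxic solvent mixture including surfactant. Greenhouse plants were visually compared with untreated controls at 12 to 14 days and scored 0 (no effect) to 100 (complete control).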"}, "[2]": {"test_system": "goosegrass (Eleusine indica)", "details": "Eleusine indica; for pest or weed control at 62 g/ha: 62 g ai/ha; for pest or weed control at 125 g/ha: 125 g ai/ha; for pest or weed control at 250 g/ha: 250 g ai/ha; for pest or weed control at 500 g/ha: 500 g ai/ha", "in_short": "as §1"}, "[3]": {"test_system": "cocklebur (Xanthium strumarium)", "details": "Xanthium strumarium; for pest or weed control at 62 g/ha: 62 g ai/ha; for pest or weed control at 125 g/ha: 125 g ai/ha; for pest or weed control at 250 g/ha: 250 g ai/ha; for pest or weed control at 500 g/ha: 500 g ai/ha", "in_short": "as §1"}, "[4]": {"test_system": "eastern black nightshade (Solanum ptycanthum)", "details": "Solanum, pre-emergence, Preemergence, read-out: Plant response rating, Nightshade", "in_short": "as §1"}, "[5]": {"test_system": "common (oilseed) sunflower (Helianthus annuus)", "details": "Helianthus annuus, pre-emergence, Preemergence, read-out: Plant response rating, Sunflower", "in_short": "as §1"}, "[6]": {"test_system": "johnsongrass (Sorghum halepense)", "details": "Sorghum halepense; for pest or weed control at 62 g/ha: 62 g ai/ha; for pest or weed control at 125 g/ha: 125 g ai/ha; for pest or weed control at 250 g/ha: 250 g ai/ha; for pest or weed control at 500 g/ha: 500 g ai/ha", "in_short": "as §1"}, "[7]": {"test_system": "common ragweed (Ambrosia elatior)", "details": "Ambrosia artemisiifolia, post-emergence, Postemergence", "in_short": "as §1"}, "[8]": {"details": "post-emergence, Postemergence, scale 0 to 100 (0 no effect, 100 complete control), read-out: Pigweed plant response rating"}, "[9]": {"details": "post-emergence, Postemergence, scale 0 to 100, read-out: Plant response rating, Pigweed"}, "[10]": {"details": "pre-emergence, Preemergence, scale 0 to 100, read-out: Plant response rating, Pigweed"}, "[11]": {"details": "post-emergence, Postemergence, scale 0 to 100 (0 no effect, 100 complete control), read-out: Goosegrass plant response rating"}, "[12]": {"details": "post-emergence, Postemergence, scale 0 to 100, read-out: Plant response rating, Goosegrass"}, "[13]": {"details": "pre-emergence, Preemergence, scale 0 to 100, read-out: Plant response rating, Goosegrass"}, "[14]": {"details": "post-emergence, Postemergence, scale 0 to 100 (0 no effect, 100 complete control), read-out: Cocklebur plant response rating"}, "[15]": {"details": "post-emergence, Postemergence, scale 0 to 100, read-out: Plant response rating, Cocklebur"}, "[16]": {"details": "pre-emergence, Preemergence, scale 0 to 100, read-out: Plant response rating, Cocklebur"}, "[17]": {"details": "62 g ai/ha, scale 0 to 100, 0 no effect, 100 complete control"}, "[18]": {"details": "post-emergence, Postemergence, scale 0 to 100 (0 no effect, 100 complete control), read-out: Johnsongrass plant response rating"}, "[19]": {"details": "post-emergence, Postemergence, scale 0 to 100, read-out: Plant response rating, Johnsongrass"}, "[20]": {"details": "pre-emergence, Preemergence, scale 0 to 100, read-out: Plant response rating, Johnsongrass"}},
  "note": "Where two headings read alike, the source gives them in different places.",
  "data": [
    {"molecule": "CCOC(=O)c1nc(C2CC2)nc(N)c1Cl", "note": "[Compound 4, ethyl 6-amino-5-chloro-2-cyclopropyl-4-pyrimidinecarboxylate]", "values": [
      {"measurement": "pest or weed control at 62 g/ha", "setting": "[1]; [8]", "value": 100, "unit": "%"},
      {"measurement": "pest or weed control at 125 g/ha", "setting": "[1]; [8]", "value": 100, "unit": "%"},
      {"measurement": "pest or weed control at 250 g/ha", "setting": "[1]; [9]", "value": 100, "unit": "%"},
      {"measurement": "pest or weed control at 500 g/ha", "setting": "[1]; [9]", "value": 100, "unit": "%"},
      {"measurement": "pest or weed control at 62 g/ha", "setting": "[1]; pre-emergence, Preemergence, scale 0 to 100, 0 no effect, 100 complete control, read-out: Plant response rating, Pigweed", "value": 95, "unit": "%"},
      {"measurement": "pest or weed control at 125 g/ha", "setting": "[1]; [10]", "value": 100, "unit": "%"},
      {"measurement": "pest or weed control at 250 g/ha", "setting": "[1]; [10]", "value": 100, "unit": "%"},
      {"measurement": "pest or weed control at 500 g/ha", "setting": "[1]; [10]", "value": 100, "unit": "%"},
      {"measurement": "pest or weed control at 62 g/ha", "setting": "[2]; [11]", "value": 0, "unit": "%"},
      {"measurement": "pest or weed control at 125 g/ha", "setting": "[2]; [11]", "value": 20, "unit": "%"},
      {"measurement": "pest or weed control at 250 g/ha", "setting": "[2]; [12]", "value": 65, "unit": "%"},
      {"measurement": "pest or weed control at 500 g/ha", "setting": "[2]; [12]", "value": 75, "unit": "%"},
      {"measurement": "pest or weed control at 62 g/ha", "setting": "[2]; pre-emergence, Preemergence, scale 0 to 100, 0 no effect, 100 complete control, read-out: Plant response rating, Goosegrass", "value": 0, "unit": "%"},
      {"measurement": "pest or weed control at 125 g/ha", "setting": "[2]; [13]", "value": 25, "unit": "%"},
      {"measurement": "pest or weed control at 250 g/ha", "setting": "[2]; [13]", "value": 55, "unit": "%"},
      {"measurement": "pest or weed control at 500 g/ha", "setting": "[2]; [13]", "value": 65, "unit": "%"},
      {"measurement": "pest or weed control at 62 g/ha", "setting": "[3]; [14]", "value": 85, "unit": "%"},
      {"measurement": "pest or weed control at 125 g/ha", "setting": "[3]; [14]", "value": 100, "unit": "%"},
      {"measurement": "pest or weed control at 250 g/ha", "setting": "[3]; [15]", "value": 100, "unit": "%"},
      {"measurement": "pest or weed control at 500 g/ha", "setting": "[3]; [15]", "value": 100, "unit": "%"},
      {"measurement": "pest or weed control at 62 g/ha", "setting": "[3]; pre-emergence, Preemergence, scale 0 to 100, 0 no effect, 100 complete control, read-out: Plant response rating, Cocklebur", "value": 80, "unit": "%"},
      {"measurement": "pest or weed control at 125 g/ha", "setting": "[3]; [16]", "value": 95, "unit": "%"},
      {"measurement": "pest or weed control at 250 g/ha", "setting": "[3]; [16]", "value": 100, "unit": "%"},
      {"measurement": "pest or weed control at 500 g/ha", "setting": "[3]; [16]", "value": 100, "unit": "%"},
      {"measurement": "pest or weed control at 62 g/ha", "setting": "[4]; [17]", "value": 100, "unit": "%"},
      {"measurement": "pest or weed control at 125 g/ha", "setting": "[4]; 125 g ai/ha, scale 0 to 100", "value": 100, "unit": "%"},
      {"measurement": "pest or weed control at 250 g/ha", "setting": "[4]; 250 g ai/ha, scale 0 to 100", "value": 100, "unit": "%"},
      {"measurement": "pest or weed control at 500 g/ha", "setting": "[4]; 500 g ai/ha, scale 0 to 100", "value": 100, "unit": "%"},
      {"measurement": "pest or weed control at 62 g/ha", "setting": "[5]; [17]", "value": 100, "unit": "%"},
      {"measurement": "pest or weed control at 125 g/ha", "setting": "[5]; 125 g ai/ha, scale 0 to 100", "value": 100, "unit": "%"},
      {"measurement": "pest or weed control at 250 g/ha", "setting": "[5]; 250 g ai/ha, scale 0 to 100", "value": 100, "unit": "%"},
      {"measurement": "pest or weed control at 500 g/ha", "setting": "[5]; 500 g ai/ha, scale 0 to 100", "value": 100, "unit": "%"},
      {"measurement": "pest or weed control at 62 g/ha", "setting": "[6]; [18]", "value": 70, "unit": "%"},
      {"measurement": "pest or weed control at 125 g/ha", "setting": "[6]; [18]", "value": 80, "unit": "%"},
      {"measurement": "pest or weed control at 250 g/ha", "setting": "[6]; [19]", "value": 95, "unit": "%"},
      {"measurement": "pest or weed control at 500 g/ha", "setting": "[6]; [19]", "value": 95, "unit": "%"},
      {"measurement": "pest or weed control at 62 g/ha", "setting": "[6]; pre-emergence, Preemergence, scale 0 to 100, 0 no effect, 100 complete control, read-out: Plant response rating, Johnsongrass", "value": 50, "unit": "%"},
      {"measurement": "pest or weed control at 125 g/ha", "setting": "[6]; [20]", "value": 70, "unit": "%"},
      {"measurement": "pest or weed control at 250 g/ha", "setting": "[6]; [20]", "value": 90, "unit": "%"},
      {"measurement": "pest or weed control at 500 g/ha", "setting": "[6]; [20]", "value": 95, "unit": "%"},
      {"measurement": "pest or weed control at 62 g/ha", "setting": "[7]; 62 g ai/ha, scale 0 to 100 (0 no effect, 100 complete control), read-out: Ragweed plant response rating", "value": 100, "unit": "%"},
      {"measurement": "pest or weed control at 125 g/ha", "setting": "[7]; 125 g ai/ha, scale 0 to 100 (0 no effect, 100 complete control), read-out: Ragweed plant response rating", "value": 100, "unit": "%"},
      {"measurement": "pest or weed control at 250 g/ha", "setting": "[7]; 250 g ai/ha, scale 0 to 100, read-out: Plant response rating, Ragweed", "value": 100, "unit": "%"},
      {"measurement": "pest or weed control at 500 g/ha", "setting": "[7]; 500 g ai/ha, scale 0 to 100, read-out: Plant response rating, Ragweed", "value": 100, "unit": "%"}
    ]}
  ]
}
